Results on 1 compound are retold here after patent publication US20210145801A1, “THERAPY FOR PROTEIN MISFOLDING DISEASE” (WREN THERAPEUTICS LIMITED, priority 2018, published 2021).

The structures appear in SMILES notation. “Also recorded” adds a separate entry of the source. Like-named read-outs stand apart in the source and are kept apart here.

In one data set the target is T1, Aβ40 (Homo sapiens, UniProt P05067).
T1 construct: similar kinetics experiments were performed on the 40-residue isoform, Aβ40
T1 sequence (P05067 672-711 limits assumed): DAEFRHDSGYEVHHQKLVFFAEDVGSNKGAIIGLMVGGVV
As to the kind of experiment: Aβ40 aggregation kinetics. In kind it is biochemical. As to conditions: 10 μM Aβ40; 1.25-fold excess. The protocol:
For the experiments monitoring Aβ40 aggregation kinetics, the experiments were performed similarly to those described above for Aβ42 at a concentration of 10 μM of Aβ40 in the absence or presence of 1.25-fold excess of Netoglitazone.

The next data set relates to PD worms (NL5901). As to the kind of experiment: Automated motility assay in PD worms. In kind it is in vivo, C. elegans. As to conditions: same concentration range as in AD worms. The protocol:
Standard conditions were used for the propagation of C. elegans (S. Brenner, The genetics of Caenorhabditis elegans. Genetics. 77, 71-94 (1974)). Briefly, the animals were synchronized by hypochlorite bleaching, hatched overnight in M9 buffer (3 g/l KH2PO4, 6 g/l Na2HPO4, 5 g/l NaCl, […]), and subsequently cultured at 20° C. on nematode growth medium (NGM) (CaCl2) 1 mM, MgSO4 1 mM, cholesterol 5 μg/mL, PBS Buffer (250 μM KH2PO4, 67.5 μM KCl, 3.425 mM of NaCl, pH 6), Agar 17 g/L, NaCl 3 g/1, casein 7.5 g/l) plates seeded with the E. coli strain OP50. […]
All C. elegans populations were cultured at 20° C. and developmentally synchronized from a 4 h egg-lay. At 64-72 h post-egg-lay (time zero), individuals were transferred to FUDR plates, and body movements were assessed over the times indicated. At different ages, the animals were washed off the plates with M9 buffer and spread over an OP-50 unseeded 9 cm plate, after which their movements were recorded at 20 fps using a recently developed microscopic procedure (M. Perni et al., Massively parallel C. elegans tracking provides multi-dimensional fingerprints for phenotypic discovery. J. Neurosci. Methods. 306, 57-67 (2018)) for 1 min. Up to 600 animals were counted in each experiment in duplicate unless stated otherwise. […]

Data set [1] relates to Aβ1-42Neur worms (CL2355). As to the kind of experiment: Chemotaxis assay in Aβ1-42Neur worms. As to conditions: 5 μM; 5 days at 24° C.; day 6 of adulthood. In kind it is in vivo, C. elegans. The protocol: Chemotaxis measurements were carried out as previously described (O. Margie, C. Palmer, I. Chin-Sang, C. elegans Chemotaxis Assay. J Vis Exp, e50069 (2013)) and as illustrated in FIG. 6C. Briefly, adult synchronized transgenic C. elegans CL2355 worms and wild-type healthy worms were incubated with or without 5 μM Netoglitazone for 5 days 24° C. At day 6 of adulthood the worms were then collected, washed with M9 buffer three times, and assayed in 9 cm screening plates (1.9% agar, 1 mM CaCl2), 1 mM MgSO4, and 25 mM phosphate buffer, pH 6.0) seeded with 50 μl of a 10× culture of Op50 Bacteria or sterile water, as attractant or test conditions, respectively and in combination with 1 μl of 1M Levamisole. Ca. 200 worms were placed in the central quadrant of the plate and incubated at 24° C. for 8 h, after which the chemotaxis index (CI) was scored. The CI was defined as follows (O. Margie et al (2013)):
(number of worms at the attractant locations−number of worms at the control locations)/total number of worms on the plate
Worms that were remaining in the central quadrant were excluded.

The nature of data set [2]: Pharmacokinetic study, single oral dose. In kind it is in vivo, male, Swiss Albino mice. As to conditions: 11.5 mg/kg p.o.; for concentration at 6 h: oral. The protocol: The pharmacokinetic profile was assessed in male, Swiss Albino mice in a discrete study using a single per oral dose of Netoglitazone (11.5 mg/kg, 30 μmoles/kg) formulated as a solution in 10% NMP/90% Solutol (as a 20% v/v solution in PBS). The dosing concentration was 2.3 mg/mL with a dosing volume of 5.0 mL/kg. Data were derived from the average of 3 animals per timepoint (terminal sampling). Plasma samples were collected at 0.25, 0.50, 1.0, 2.0, 4.0, 6.0, 8.0 and 24 hours by protein precipitation method with acetonitrile. Brain samples were collected at 6.0 and 24 hours by brain homogenisation and protein precipitation method with acetonitrile. Cerebrospinal fluid (CSF) samples were collected at 6.0 and 24 hours by protein precipitation method with acetonitrile. Samples were analysed using UHPLC with TOF mass spectrometry using electrospray ionisation.

Where [3] appears, read: male, Swiss Albino, mouse, plasma, po, single dose.

Consider `O=C1NC(=O)C(Cc2ccc3cc(OCc4ccccc4F)ccc3c2)S1` (centres unmarked) [Netoglitazone], for which the “Inhibition of Aβ40 aggregation” value at Aβ40 is recorded as “able to inhibit Aβ40 aggregation similarly to the 42-residue isoform”. Besides, the “Effect on mobility of PD worms” value in the data set on PD worms (NL5901) was “negligible compared to the observed effect in AD worms”. The “Chemotaxis index of Aβ1-42Neur worms” value in data set [1] is recorded as “chemotaxis index was significantly improved; also recorded: significantly improves the (A) chemotaxis index”. Also, in data set [2], the “Brain penetration across the blood brain barrier” value is given as “good brain penetration across the blood brain barrier”. Moreover, the concentration at 6 h in data set [2] (male, Swiss Albino, mouse, CSF, read-out: CSF levels) came to 50 ng/mL. Besides, the concentration at 6 h in data set [2] (male, Swiss Albino, mouse, brain homogenate, read-out: Total brain levels) stood at 8540 ng/g. Further, in data set [2] (setting [3]), the Cmax turned out to be 14400 ng/mL and the Tmax was determined as 6 h.
